In PubChem BioAssay AID1996:
Values after ≈ are worked out from the molar mass of the structure shown.

Conditions: buffer; pH 7.4; 200.0 µM

Going from `CCC(=O)N(Cc1cc2ccccc2[nH]c1=O)c1ccc(OC)cc1` to `CCCc1cc(=O)[nH]c(SCC(=O)Nc2ccc3ccccc3c2)n1`, the solubility kinetic falls from greater than 50.5 µg/mL to 2.6 µg/mL (≈ 7.36 µM).

First: O=C(O)c1ccc2c(=O)n3c(nc2c1)/C(=C/c1cccc(O)c1)CC3
Second: Cc1cccc(NC(=O)c2cc(=O)c3ccccc3o2)c1
The solubility kinetic of the first is higher: greater than 50.1 µg/mL for the first, 1.9 µg/mL (≈ 6.8 µM) for the second.

`CC(=O)N1CCN(C(=O)C2CCN(S(=O)(=O)c3ccccc3C(F)(F)F)CC2)CC1` and `CCN1CCN(C(=O)C2CC(=O)N(c3ccc(Cl)cc3)C2)CC1` (centres undefined) cannot be ordered by solubility kinetic: greater than 67.1 µg/mL for the first, greater than 50.4 µg/mL for the second.

Going from `CNC(=O)COC(=O)COc1ccc2c(C)cc(=O)oc2c1` to `CCOCCCNC(=O)c1c[nH]c2ccc(OCC)cc2c1=O`, the solubility kinetic falls from greater than 45.8 µg/mL to 31.4 µg/mL (≈ 98.6 µM).

First: O=C(Nc1sc2c(c1C(=O)O)CCCCC2)c1ccccc1
Second: O=C(c1ccc2ccccc2c1)N1CCCC1
The solubility kinetic of the first is higher: greater than 47.3 µg/mL for the first, 19.7 µg/mL (≈ 87.4 µM) for the second.

`CC(=O)Nc1ccc(S(=O)(=O)NCCCN2CCOCC2)cc1` and `Cc1cc(C)c(C)c(S(=O)(=O)NCCN2CCOCC2)c1C` are within 1.5-fold of each other in solubility kinetic: 46.3 µg/mL (≈ 136 µM) for the first, 48.8 µg/mL (≈ 149 µM) for the second.

First: O=C1CSC(c2ccccc2[N+](=O)[O-])N1c1cccc(F)c1 (centres undefined)
Second: CC1(C)Nc2ccccc2N(Cc2ccc([N+](=O)[O-])cc2)C1=O
The solubility kinetic of the first is lower: 12.9 µg/mL (≈ 40.5 µM) for the first, greater than 46.7 µg/mL for the second.

Going from `O=C(COc1ccccc1Cl)Nc1nc(-c2ccncc2)cs1` to `Cc1ccnc(NC(=O)c2ccc(Cl)c(NC(=O)c3ccccc3C)c2)c1`, the solubility kinetic falls from 11.4 µg/mL (≈ 33 µM) to 1 µg/mL (≈ 2.63 µM) (11-fold).

Compared with `CN1CCN(c2oc(-c3ccc([N+](=O)[O-])cc3)nc2C#N)CC1`, `CC(=O)N1CCN(c2nc3ccc([N+](=O)[O-])cc3s2)CC1` is 7.7-fold higher in solubility kinetic: 4.1 µg/mL (≈ 13.1 µM) for the first, 31.7 µg/mL (≈ 103 µM) for the second.

Going from `COc1ccc(/C=N/NC(=O)c2ccc[nH]2)cc1` to `COc1ccc(C2C(C#N)=C(N)Oc3cccc(O)c32)cc1` (centres undefined), the solubility kinetic falls from greater than 36.5 µg/mL to 9.6 µg/mL (≈ 32.6 µM).

Compared with `CC1CCCCC1NC(=O)CN1C(=O)COc2ccccc21` (centres undefined), `CC1CCCCC1NC(=O)CN1C(=O)c2ccccc2S1(=O)=O` (centres undefined) is 3.1-fold higher in solubility kinetic: 8.2 µg/mL (≈ 27.1 µM) for the first, 25.7 µg/mL (≈ 76.4 µM) for the second.

First: CC1(C)C(=O)Nc2ccccc2N1C(=O)c1ccc([N+](=O)[O-])cc1
Second: Cc1ccc(C(=O)NCCc2ccccc2)cc1
The solubility kinetic of the first is 12-fold lower: 2.3 µg/mL (≈ 7.07 µM) for the first, 27.4 µg/mL (≈ 114 µM) for the second.

Compared with `CC(C)c1ccc(NC2CCCN(C(=O)c3cccnc3)C2)cc1` (centres undefined), `CC1CCCN(C(=O)c2ccc(-c3ccccc3Cl)o2)C1` (centres undefined) is lower in solubility kinetic: greater than 48.5 µg/mL for the first, 10 µg/mL (≈ 32.9 µM) for the second.

`COc1cccc(-c2nc(NCc3cccnc3)c3ccccc3n2)c1O` and `COc1ccccc1N1C(=O)c2cccc3c(Cl)ccc(c23)C1=O` cannot be ordered by solubility kinetic: 0.3 µg/mL (≈ 0.837 µM) for the first, less than 0.7 µg/mL for the second.

`CN(Cc1ccc2c(c1)OCCO2)C(=O)CN1C(=O)NC2(CCCCC2)C1=O` and `COc1cccc(S(=O)(=O)NCC(=O)N2CCCCCC2)c1` cannot be ordered by solubility kinetic: 50.2 µg/mL (≈ 130 µM) for the first, greater than 49 µg/mL for the second.

Going from `CCCN(C(=O)CCl)C1=CCCCC1` to `CCOC(=O)CNC(=O)N1CCCC(N(C)CCc2ccccc2)C1` (centres undefined), the solubility kinetic rises from 31 µg/mL (≈ 144 µM) to greater than 52.1 µg/mL.

First: CC1CCC(NC(=O)c2ccc(COc3ccccc3)o2)CC1 (centres undefined)
Second: COc1ccccc1NC(=O)C1CCCN(C(=O)NCc2ccccc2)C1 (centres undefined)
The solubility kinetic of the first is lower: 1.7 µg/mL (≈ 5.42 µM) for the first, greater than 55.1 µg/mL for the second.

`CCC(OC(=O)c1nsc(Cl)c1Cl)C(=O)NCCOC` (centres undefined) and `Cc1ccc(C(=O)NCCCNC(=O)c2ccccn2)cc1` cannot be ordered by solubility kinetic: greater than 51.2 µg/mL for the first, greater than 44.6 µg/mL for the second.

`CCCCn1c(N)c(N(CC)C(=O)c2ccco2)c(=O)[nH]c1=O` and `CCOc1cc2c(cc1OC)C(NC(=O)c1ccco1)CC2=O` (centres undefined) cannot be ordered by solubility kinetic: greater than 48.1 µg/mL for the first, greater than 47.3 µg/mL for the second.

`COc1ccccc1OCC#CCN1CCCC1.O=C(O)C(=O)O` and `COc1cccc(CNCC(=O)NC(=O)NC2CCCC2)c1.O=C(O)C(=O)O` cannot be ordered by solubility kinetic: greater than 50.3 µg/mL for the first, greater than 59.3 µg/mL for the second.

First: CCc1ccc(C(=O)Nc2cc(C)on2)o1
Second: CCc1noc(C)c1C(=O)Nc1nc(-c2ccc(F)cc2)c(C)s1
The solubility kinetic of the first is higher: greater than 33 µg/mL for the first, 0.3 µg/mL (≈ 0.869 µM) for the second.

First: CCOC(=O)c1cc2c(ccn2C)n1CC(=O)Nc1ccc(F)cc1
Second: Cc1ncc([N+](=O)[O-])n1CC(=O)Nc1cccc(C(F)(F)F)c1
The solubility kinetic of the first is 1.9-fold lower: 3.1 µg/mL (≈ 9.03 µM) for the first, 6 µg/mL (≈ 18.3 µM) for the second.

`COc1ccc2[nH]cc(CCNS(=O)(=O)c3ccc(C)cc3)c2c1` and `Cl.NCCc1c[nH]c2ccc(O)cc12` cannot be ordered by solubility kinetic: 50.6 µg/mL (≈ 147 µM) for the first, greater than 31.9 µg/mL for the second.

Going from `COC(=O)C1C(O)=C(C(C)=Nc2cccc3ccccc23)C(=O)CC1(C)C` (centres undefined) to `CCc1cccc2c(C(=O)C(NC(C)CC)c3ccccc3)c[nH]c12` (centres undefined), the solubility kinetic rises from 20.3 µg/mL (≈ 55.6 µM) to 42.8 µg/mL (≈ 128 µM) (2.1-fold).

`CC1CCCCC1NC(=O)c1ccco1` (centres undefined) and `Nn1c(C2CCCCC2)nc2ccccc2c1=O` cannot be ordered by solubility kinetic: greater than 31.1 µg/mL for the first, greater than 36.5 µg/mL for the second.

First: Cc1ccc(-c2nc3ccccc3c(=O)o2)cc1
Second: Cc1ccc(Cn2c(N)nc3ccccc32)cc1
The solubility kinetic of the first is 20-fold lower: 1.2 µg/mL (≈ 5.06 µM) for the first, 23.8 µg/mL (≈ 100 µM) for the second.

Compared with `O=C1/C(=C/Nc2ccc3c(c2)OCO3)CCc2ccccc21`, `O=c1[nH]c(/C=C/c2ccccc2Cl)nc2ccccc12` is lower in solubility kinetic: 1.4 µg/mL (≈ 4.77 µM) for the first, less than 0.3 µg/mL for the second.

Compared with `S=C(Nc1ccc(Cl)c(Cl)c1)N1CCCC1`, `O=C(CN1CCCCCC1)Nc1ccc(Br)cn1` is 10-fold higher in solubility kinetic: 3.3 µg/mL (≈ 12 µM) for the first, 33.7 µg/mL (≈ 108 µM) for the second.

Going from `Cc1cc(OC(=O)c2ccccc2C)c([N+](=O)[O-])c(=O)[nH]1` to `Cc1cccc(OP(N)(=O)Oc2cccc(C)c2C)c1C`, the solubility kinetic falls from greater than 43.2 µg/mL to 3.9 µg/mL (≈ 12.8 µM).

Compared with `Cc1cccc(N2C(=O)CC(Sc3nccc(C)n3)C2=O)c1` (centres undefined), `COCCCn1c(=O)c2sccc2n(Cc2ccc(C)cc2)c1=O` is lower in solubility kinetic: greater than 47 µg/mL for the first, less than 0.4 µg/mL for the second.

`COC(=O)c1ccc(NC(=O)[C@H](C)NC(N)=O)cc1` and `CC(Sc1nnc2ccccn12)C(=O)Nc1ccc(N2CCOCC2)cc1` (centres undefined) cannot be ordered by solubility kinetic: greater than 39.8 µg/mL for the first, greater than 57.5 µg/mL for the second.

Compared with `O=[N+]([O-])c1cccc(C(=NCc2ccccc2)NO)c1`, `Cc1ccc(Cl)c(N/C=C/C(=O)c2ccccc2)c1` is lower in solubility kinetic: greater than 40.7 µg/mL for the first, less than 0.6 µg/mL for the second.

`O=C(c1ccco1)N1CCN(Cc2nc3ccccc3[nH]2)CC1` and `Cc1ccccc1N1CCN(CC(=O)Nc2nccs2)CC1` are within 1.5-fold of each other in solubility kinetic: 41.2 µg/mL (≈ 133 µM) for the first, 44.2 µg/mL (≈ 140 µM) for the second.

First: Nc1ccc(Oc2ccc3c(c2)C(=O)NC3=O)cc1
Second: CC(C)Oc1ccc(CC2(CCc3ccncc3)C(=O)NC(=O)NC2=O)cc1
The solubility kinetic of the first is 4.6-fold higher: 35.5 µg/mL (≈ 140 µM) for the first, 7.7 µg/mL (≈ 20.2 µM) for the second.

`O=C(NCc1ccccn1)C(=O)Nc1ccccc1` and `O=C(c1ccccc1)c1cccn1CC(=O)N1CCc2ccccc2C1` cannot be ordered by solubility kinetic: greater than 38.3 µg/mL for the first, 41.4 µg/mL (≈ 120 µM) for the second.

Going from `C=C(C)CSc1nc2sc3c(c2c(=O)n1-c1ccc(C)cc1)CCN(C)C3` to `Cc1ccc(C2=CSC3=NS(=O)(=O)CCN23)cc1`, the solubility kinetic rises from 25.6 µg/mL (≈ 64.4 µM) to greater than 42.1 µg/mL.

First: CCN(CC)Cc1nc2c(c(=O)[nH]1)C(CC)(CC)Cc1ccccc1-2
Second: CN(C)c1nc2ncn(Cc3ccccc3)c2c(=O)[nH]1
The solubility kinetic of the first is lower: 1.7 µg/mL (≈ 5.01 µM) for the first, greater than 40.4 µg/mL for the second.

Going from `CC(CC12CC3CC(CC(C3)C1)C2)NCc1ccccc1O.Cl` (centres undefined) to `Cc1ccc(C(=O)NCC(=O)NC23CC4CC(CC(C4)C2)C3)cc1`, the solubility kinetic falls from 38.5 µg/mL to 4.2 µg/mL (≈ 12.9 µM) (9.2-fold).

`CNC(=O)CCN(Cc1ccco1)S(=O)(=O)c1ccc(OC)c(OC)c1` and `CC(C)(C)OC(=O)NCCC(=O)N/N=C/c1cccc2cccnc12` cannot be ordered by solubility kinetic: 56.2 µg/mL (≈ 147 µM) for the first, greater than 51.4 µg/mL for the second.

`COc1cc(OC)cc(N2C(=O)CSCC2=O)c1` and `C#CCOc1c(Cl)cc(/C=C2/C(=O)ON=C2C)cc1OC` cannot be ordered by solubility kinetic: greater than 40.1 µg/mL for the first, 43.5 µg/mL (≈ 142 µM) for the second.

Going from `COc1ccc(NS(=O)(=O)c2cc(NC(=O)c3ccc(Cl)cc3)ccc2N2CCOCC2)cc1` to `CC(CCc1ccccc1)NCC(O)COc1ccccc1` (centres undefined), the solubility kinetic rises from 1.5 µg/mL (≈ 2.99 µM) to 43.1 µg/mL (≈ 144 µM) (29-fold).

First: CCN(CC)C(=O)C12CC3CC(CC(Br)(C3)C1)C2
Second: CC12CCC(C(=O)O)(c3nc4cc([N+](=O)[O-])ccc4nc31)C2(C)C (centres undefined)
The solubility kinetic of the first is lower: 32.7 µg/mL (≈ 104 µM) for the first, greater than 49.1 µg/mL for the second.
